Measured values as given in PubChem BioAssay AID1582.
Results filed as inconclusive are left out.

Test system: S. cerevisiae PHO84-LacZ reporter, HDAC inhibition
Test: HDAC inhibitors via yeast reporter, S. cerevisiae, PHO84-LacZ (AID 1582)

Row | Structure (SMILES) | EC50
1 | CC(C(=O)O)c1ccc(N2Cc3ccccc3C2=O)cc1 (configuration not stated) | 50 µM
2 | CCC(C)[C@H]1O[C@]2(C=C[C@@H]1C)C[C@@H]1C[C@@H](C/C=C(\C)[C@@H](OC3C[C@H](OC)C(O[C@H]4C[C@H](OC)[C@@H](O)[C@H](C)O4)[C@H](C)O3)[C@@H](C)/C=C/C=C3\CO[C@@H]4[C@H](O)C(C)=C[C@@H](C(=O)O1)[C@]34O)O2 (some centres not stated) | 66 µM
3 | N#Cc1ccc2c(c1)N(CCCN1CCC(O)CC1)c1ccccc1S2 | 148 µM
4 | NCCCCN | 125 µM
5 | CN(Cc1cnc2nc(N)nc(N)c2n1)c1ccc(C(=O)N[C@@H](CCC(=O)O)C(=O)O)cc1 | 78 µM
6 | COc1cc(C)c2c(=O)cc(-c3ccccc3)oc2c1 | 60 µM
7 | c1ccc2[nH]c(-c3cscn3)nc2c1 | 148 µM
